From ChEMBL document CHEMBL1155560, “Two complex proline esters from the sea hare Stylocheilus longicauda” (J Nat Prod, 2000)
Values after ≈ are worked out from the molar mass of the structure shown.

Assays:
Format in all cases: functional, cell-based
[1] = Cytotoxicity against human HTB38 cells; conditions: HTB-38
[2] = tested on: A549; test: Cytotoxicity against human A549 cells
[3] = tested on: P388; test: Cytotoxicity against mouse P388 cells

SMILES | IC50 [1] | IC50 [2] | IC50 [3]
C=C(C/C=C/C=C/Cl)CC(OC(=O)[C@@H]1CCC(=O)N1C)C(C)(C)C (stereo partly specified) | 2.5 µg/mL (≈ 7.06 µM) | 2.5 µg/mL (≈ 7.06 µM) | 2.5 µg/mL (≈ 7.06 µM)
C=C[C@](C)(CCC=C(C)C)c1ccc2c3c(c[nH]c13)C[C@@H](COC(C)=O)NC(=O)[C@H](C(C)C)N2C [LYNGBYATOXIN A ACETATE] | 0.05 µg/mL | 0.05 µg/mL | 0.05 µg/mL
